{
  "source": "patent EP4711361A1",
  "about": "“NITROGEN-CONTAINING HETEROCYCLIC COMPOUND AND USE THEREOF” (Jiangsu Deyuan Pharmaceutical Co.,Ltd., priority 2023, dated 2024)",
  "key": {"[1]": {"test": "Plasma protein binding rate test (equilibrium dialysis), human plasma", "conditions": "2 µM, equilibrium dialysis 4 hours, 37°C"}, "[2]": {"test": "In vitro liver microsome metabolic stability study", "conditions": "human liver microsomes 0.5 mg/mL, 1 µM compound, up to 60 minutes"}, "[3]": {"test": "In vivo pharmacokinetics study in rats", "conditions": "male SD rats, oral 2 mg/kg"}, "[4]": {"test": "Plasma protein binding rate test (equilibrium dialysis), SD rat plasma", "conditions": "2 µM, equilibrium dialysis 4 hours, 37°C"}, "[5]": {"test": "Plasma protein binding rate test (equilibrium dialysis), cynomolgus monkey plasma", "conditions": "2 µM, equilibrium dialysis 4 hours, 37°C"}, "[6]": {"test_system": "MDR1-MDCKII cells", "test": "Permeability test (MDR1-MDCKII monolayer, bidirectional transport)", "format": "in vitro ADME", "conditions": "2 µM", "procedure": "(§1) Experimental objective: The permeability and efflux ratio of the compound of the present disclosure were determined using the MDR1-MDCKII monolayer cell model to assess its membrane permeability and potential for P-gp-mediated efflux transport.\n(§2) Experimental protocol: MDR1-MDCKII cells (obtained from the Netherlands Cancer Institute) were seeded in 96-well plates (obtained from Corning) at a cell density of 3.33 × 10^5 cells/mL and cultured for 4 to 7 days to form confluent cell monolayers. Hank's balanced salt solution containing 10 mM HEPES (pH 7.40) was used as the transport buffer. The test compound was evaluated for bidirectional transport at a concentration of 2 µM, with the DMSO concentration in the incubation system maintained below 1%. After adding the samples, the cell plate was incubated at 37±1°C, 5% CO2, and saturated humidity for 2.5 hours. All samples were quantitatively analyzed using the LC-MS/MS method. The apparent permeability coefficient (Papp, cm/s) and efflux ratio (ER) were calculated using the following formula. Apparent permeability coefficient (Papp, cm/s) was calculated using the following formula: Papp = (dCr/dt) x Vr / (A x C0). Herein, dCr/dt represents the cumulative concentration of the compound at the receiving end per unit time (µM/s); Vr is the volume of the solution at the receiving end (with solution volumes at the apical and basolateral ends being 0.075 mL and 0.250 mL, respectively); A is the relative surface area of the cell monolayer (0.143 cm^2); C0 is the initial concentration of the test substance at the dosing end (µM) or the peak area ratio of the reference substance. The efflux ratio was calculated using the following formula: ER = Papp (BA)/ Papp (AB). Table 7: Permeability test results of compounds"}, "[7]": {"test": "In vivo pharmacokinetic study in cynomolgus monkeys", "conditions": "male cynomolgus monkeys, oral 3 mg/kg"}, "[8]": {"test": "in vitro", "conditions": "human, plasma"}, "[9]": {"test": "in vitro", "conditions": "cynomolgus monkey, plasma"}, "[10]": {"test": "in vivo", "conditions": "cynomolgus monkey, po, 1 mg/kg"}, "[11]": {"test": "in vitro", "conditions": "rat, plasma"}, "[12]": {"test": "in vitro", "conditions": "human, microsomes"}, "[13]": {"test": "Permeability test (MDR1-MDCKII monolayer, bidirectional transport)", "format": "in vitro ADME", "conditions": "dog; for efflux ratio at 2.5 h, 2 µM: MDCK-MDR1, pH 7.4, ER = Papp (BA)/ Papp (AB); for Papp A→B at 2.5 h, 2 µM: MDCK-MDR1, pH 7.4, pH 7.40, 2.5 hours, A to B, read-out: Apparent permeability coefficient (Papp (AB), 10^-6 cm/s)", "procedure": "as §1, §2"}},
  "data": [
    {"smiles": "CCC(=O)N[C@@H]1CCCc2c(-c3ccc4c(ccc(=O)n4C)c3)cncc21", "note": "(single isomer, unassigned) [Compound 001]", "values": [
      {"measurement": "Human plasma protein binding rate (%)", "setting": "[1]", "result": 76.1, "unit": "%"},
      {"measurement": "Intrinsic hepatic clearance CLint(liver)", "setting": "[2]", "result": "<8.6", "unit": "mL/min/kg"},
      {"measurement": "F (%)", "setting": "[3]", "result": 80, "unit": "%"},
      {"measurement": "AUC0-24h", "setting": "[3]; plasma", "result": 59.097, "unit": "µM·h"},
      {"measurement": "Cmax", "setting": "[3]; plasma", "result": 7640, "unit": "nM"},
      {"measurement": "T1/2", "setting": "[3]; plasma", "result": 4.61, "unit": "h"},
      {"measurement": "Plasma protein binding rate (%) in SD rats", "setting": "[4]", "result": 92.1, "unit": "%"},
      {"measurement": "Plasma protein binding rate (%) in cynomolgus monkeys", "setting": "[5]", "result": 74.6, "unit": "%"},
      {"measurement": "Efflux ratio (ER)", "setting": "[6]; ER = Papp (BA)/ Papp (AB), 150 min", "result": 1.76},
      {"measurement": "Apparent permeability coefficient (Papp (AB), 10^-6 cm/s)", "setting": "[6]; pH 7.40, 2.5 hours, A to B", "result": "17.2 10^-6 cm/s"},
      {"measurement": "F (%)", "setting": "[7]", "result": 120, "unit": "%"},
      {"measurement": "AUC0-24h", "setting": "[7]; plasma", "result": 23.174, "unit": "µM·h"},
      {"measurement": "Cmax", "setting": "[7]; plasma", "result": 4000, "unit": "nM"},
      {"measurement": "T1/2", "setting": "[7]; plasma", "result": 4.99, "unit": "h"}
    ]},
    {"smiles": "CCC(=O)NC1CCCc2c(-c3cc4c(s3)N(C)C(=O)CC4)cncc21", "note": "(single isomer, unassigned) [Compound 017]", "values": [
      {"measurement": "fraction unbound at 4 h, 2 µM", "setting": "[8]", "result": 0.173},
      {"measurement": "fraction unbound at 4 h, 2 µM", "setting": "[9]", "result": 0.219},
      {"measurement": "AUC(0-t) at 24 h", "setting": "[10]", "result": 7.29, "unit": "µM·h"},
      {"measurement": "Cmax", "setting": "[10]", "result": 1070, "unit": "nM"},
      {"measurement": "bioavailability", "setting": "[10]", "result": 66, "unit": "%"},
      {"measurement": "half-life", "setting": "[10]", "result": 5.3, "unit": "h"},
      {"measurement": "fraction unbound at 4 h, 2 µM", "setting": "[11]", "result": 0.051},
      {"measurement": "CLint scaled at 1 µM", "setting": "[12]", "result": "< 8.6", "unit": "mL/min/kg"},
      {"measurement": "efflux ratio at 2.5 h, 2 µM", "setting": "[13]", "result": 0.95},
      {"measurement": "Papp A→B at 2.5 h, 2 µM", "setting": "[13]", "result": 23.2, "unit": "×10⁻⁶ cm/s"}
    ]},
    {"smiles": "CCC(=O)NC1CCCc2c(-c3cc4ccc(=O)n(C)c4s3)cncc21", "note": "(single isomer, unassigned) [Compound 023]", "values": [
      {"measurement": "fraction unbound at 4 h, 2 µM", "setting": "[8]", "result": 0.304},
      {"measurement": "fraction unbound at 4 h, 2 µM", "setting": "[9]", "result": 0.31},
      {"measurement": "AUC(0-t) at 24 h", "setting": "[10]", "result": 8.92, "unit": "µM·h"},
      {"measurement": "Cmax", "setting": "[10]", "result": 1320, "unit": "nM"},
      {"measurement": "bioavailability", "setting": "[10]", "result": 76.5, "unit": "%"},
      {"measurement": "half-life", "setting": "[10]", "result": 4.8, "unit": "h"},
      {"measurement": "fraction unbound at 4 h, 2 µM", "setting": "[11]", "result": 0.096},
      {"measurement": "CLint scaled at 1 µM", "setting": "[12]", "result": "< 8.6", "unit": "mL/min/kg"},
      {"measurement": "efflux ratio at 2.5 h, 2 µM", "setting": "[13]", "result": 1.28},
      {"measurement": "Papp A→B at 2.5 h, 2 µM", "setting": "[13]", "result": 20.8, "unit": "×10⁻⁶ cm/s"}
    ]}
  ]
}
